How the values were obtained:
[1] = molecular target: T1, CD73 on U138 neuroglioma cells (Homo sapiens, UniProt P21589); assay: Inhibition of Ecto-5′-Nucleotidase Activity in U138 Neuroglioma Cells (Assay 2); assay type: cell-based; details: 50 μM CMP, 2 hr at 37° C., malachite green readout, read-out: Assay 2: IC50, inhibition of ecto-5′-nucleotidase activity in U138 neuroglioma cells
T1 construct: U138 neuroglioma cells, which express CD73 on their surface; endogenous in cells; host or cells: U138 neuroglioma cells (ATCC)
T1 sequence (P21589 27-549): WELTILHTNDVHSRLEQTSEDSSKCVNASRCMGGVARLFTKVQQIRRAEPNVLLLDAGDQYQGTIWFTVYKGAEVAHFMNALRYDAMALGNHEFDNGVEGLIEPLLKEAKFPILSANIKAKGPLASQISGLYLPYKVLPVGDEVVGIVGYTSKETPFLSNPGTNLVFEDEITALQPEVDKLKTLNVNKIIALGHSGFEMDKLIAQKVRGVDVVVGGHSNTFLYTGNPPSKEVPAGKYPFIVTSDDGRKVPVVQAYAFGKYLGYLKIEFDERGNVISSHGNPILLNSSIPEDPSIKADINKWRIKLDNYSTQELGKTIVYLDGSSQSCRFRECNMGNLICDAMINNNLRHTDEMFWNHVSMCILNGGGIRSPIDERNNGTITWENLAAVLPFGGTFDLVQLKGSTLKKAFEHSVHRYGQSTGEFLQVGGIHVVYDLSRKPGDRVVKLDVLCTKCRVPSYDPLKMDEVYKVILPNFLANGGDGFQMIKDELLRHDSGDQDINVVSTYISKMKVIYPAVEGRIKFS
Outline: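 Whole-cell CD73 activity in U138 human neuroglioma cells seeded the day before, washed free of phosphate, then given test compound dilutions with 50 μM CMP in HEPES-buffered saline, pH 7.4, DMSO ≤0.1%. Incubated 2 hr at 37° C; released inorganic phosphate in supernatant measured by malachite green; IC50 by nonlinear regression.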

human CD73 = molecular target: T2, human CD73 (Homo sapiens, UniProt P21589); assay: Inhibition of 5′-Nucleotidase Activity of CD73 (Assay 1); assay type: biochemical; details: human CD73 4 ng/ml, 50 μM CMP, 20 min at RT, malachite green readout; read-out: Assay 1: IC50, inhibition of 5′-nucleotidase activity of CD73
T2 construct: purchased R&D Systems 5795-EN-010
T2 sequence (P21589 27-549): T1 sequence (P21589 27-549)
Outline: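 Human CD73 (4 ng/ml final) was incubated with 50 μM CMP in 25 mM Tris-HCl pH 7.4, 0.005% Brij-35 for 20 min at RT. Reactions were stopped with malachite green reagent and absorbance was read at 620 nm. IC50 came from a 4-parameter logistic fit.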

| Compound | IC50 [1] [nM] | IC50 (human CD73) [nM] |
| --- | --- | --- |
| COc1nc(OC)c2ncn([C@@H]3O[C@H](COC(C(=O)O)P(=O)(O)O)[C@@H](O)[C@H]3O)c2n1 (stereo partly drawn) [Example 33a, 2-(((2R,3S,4R,5R)-5-(2,6-dimethoxy-9H-purin-9-yl)-3,4-dihydroxytetrahydrofuran-2-yl)methoxy)-2-phosphonoacetic acid] | > 1000 | 100 to 1000 |
| Cc1nc(C)c2ncn([C@@H]3O[C@H](COC(C(=O)O)P(=O)(O)O)[C@@H](O)[C@H]3O)c2n1 (stereo partly drawn) [Example 38, 2-(((2R,3S,4R,5R)-5-(2,6-dimethyl-9H-purin-9-yl)-3,4-dihydroxytetrahydrofuran-2-yl)methoxy)-2-phosphonoacetic acid] | > 1000 | 100 to 1000 |
| CCOC(=O)C(OC[C@H]1O[C@@H](n2cnc3c(N)nc(SC)nc32)[C@H](O)[C@@H]1O)P(=O)(O)O (stereo partly drawn) [Example 43, (1-(((2R,3S,4R,5R)-5-(6-amino-2-(methylthio)-9H-purin-9-yl)-3,4-dihydroxytetrahydrofuran-2-yl)methoxy)-2-ethoxy-2-oxoethyl)phosphonic Acid] | > 1000 | 100 to 1000 |
| Nc1nc(Cl)nc2c1ncn2[C@@H]1O[C@H](COC(Cc2ccc(Cl)cc2)(C(=O)O)C(=O)O)[C@@H](O)[C@H]1O [Example 47, 2-(((2R,3S,4R,5R)-5-(6-amino-2-chloro-9H-purin-9-yl)-3,4-dihydroxytetrahydrofuran-2-yl)methoxy)-2-(4-chlorobenzyl)malonic acid] | < 100 | < 100 |
| N#Cc1ccc(CC(OC[C@H]2O[C@@H](n3cnc4c(N)nc(Cl)nc43)[C@H](O)[C@@H]2O)(C(=O)O)C(=O)O)cc1 [Example 48, 2-(((2R,3S,4R,5R)-5-(6-amino-2-chloro-9H-purin-9-yl)-3,4-dihydroxytetrahydrofuran-2-yl)methoxy)-2-(4-cyanobenzyl)malonic acid] | < 100 | < 100 |
| Nc1nc(F)nc2c1ncn2[C@@H]1O[C@H](CO[C@@H](C(=O)O)P(=O)(O)O)[C@@H](O)[C@H]1O [Example 53, (R)-2-(((2R,3S,4R,5R)-5-(6-amino-2-fluoro-9H-purin-9-yl)-3,4-dihydroxytetrahydrofuran-2-yl)methoxy)-2-phosphonoacetic Acid] | 100 to 1000 | < 100 |
| Nc1nc(F)nc2c1ncn2[C@@H]1O[C@H](CO[C@H](C(=O)O)P(=O)(O)O)[C@@H](O)[C@H]1O [Example 53a, (S)-2-(((2R,3S,4R,5R)-5-(6-amino-2-fluoro-9H-purin-9-yl)-3,4-dihydroxytetrahydrofuran-2-yl)methoxy)-2-phosphonoacetic acid] | > 1000 | > 1000 |
| CC(C)(C)OC(=O)[C@H](OC[C@H]1O[C@@H](n2cnc3c(N)nc(C#N)nc32)[C@H](O)[C@@H]1O)P(=O)(O)O [Example 54a, ((R)-1-(((2R,3S,4R,5R)-5-(6-amino-2-cyano-9H-purin-9-yl)-3,4-dihydroxytetrahydrofuran-2-yl)methoxy)-2-(tert-butoxy)-2-oxoethyl)phosphonic Acid] | > 1000 | 100 to 1000 |
| O=C(Nc1nc(I)nc2c1ncn2[C@@H]1O[C@H](COC(C(=O)O)P(=O)(O)O)[C@@H](O)[C@H]1O)c1ccccc1 (stereo partly drawn) [Example 58, 2-(((2R,3S,4R,5R)-5-(6-benzamido-2-iodo-9H-purin-9-yl)-3,4-dihydroxytetrahydrofuran-2-yl)methoxy)-2-phosphonoacetic acid] | 100 to 1000 | < 100 |
| Nc1nc(I)nc2c1ncn2[C@@H]1O[C@H](CO[C@H](C(=O)O)P(=O)(O)O)[C@@H](O)[C@H]1O [Example 59, (S)-2-(((2R,3S,4R,5R)-5-(6-amino-2-iodo-9H-purin-9-yl)-3,4-dihydroxytetrahydrofuran-2-yl)methoxy)-2-phosphonoacetic Acid] | 100 to 1000 | < 100 |
| Nc1nc(I)nc2c1ncn2[C@@H]1O[C@H](CO[C@@H](C(=O)O)P(=O)(O)O)[C@@H](O)[C@H]1O [Example 59a, (R)-2-(((2R,3S,4R,5R)-5-(6-amino-2-iodo-9H-purin-9-yl)-3,4-dihydroxytetrahydrofuran-2-yl)methoxy)-2-phosphonoacetic Acid] | 100 to 1000 | < 100 |
| O=C(O)C(OC[C@H]1O[C@@H](n2cnc3c(NO)nc(I)nc32)[C@H](O)[C@@H]1O)P(=O)(O)O (stereo partly drawn) [Example 59b, 2-(((2R,3S,4R,5R)-3,4-dihydroxy-5-(6-(hydroxyamino)-2-iodo-9H-purin-9-yl)tetrahydrofuran-2-yl)methoxy)-2-phosphonoacetic acid] | 100 to 1000 | < 100 |
| O=C(O)C(OC[C@H]1O[C@@H](n2cnc3c(Cl)nc(Cl)nc32)[C@H](O)[C@@H]1O)P(=O)(O)O (stereo partly drawn) [Example 62, 2-(((2R,3S,4R,5R)-5-(2,6-dichloro-9H-purin-9-yl)-3,4-dihydroxytetrahydrofuran-2-yl)methoxy)-2-phosphonoacetic acid] | 100 to 1000 | < 100 |
| CCOc1nc(Cl)nc2c1ncn2[C@@H]1O[C@H](COC(C(=O)O)P(=O)(O)O)[C@@H](O)[C@H]1O (stereo partly drawn) [Example 63, 2-(((2R,3S,4R,5R)-5-(2-chloro-6-ethoxy-9H-purin-9-yl)-3,4-dihydroxytetrahydrofuran-2-yl)methoxy)-2-phosphonoacetic acid] | 100 to 1000 | < 100 |
| O=C(O)C(OC[C@H]1O[C@@H](n2cnc3c(Nc4ccccc4)ncnc32)[C@H](O)[C@@H]1O)P(=O)(O)O (stereo partly drawn) [Example 65, 2-(((2R,3S,4R,5R)-3,4-dihydroxy-5-(6-(phenylamino)-9H-purin-9-yl)tetrahydrofuran-2-yl)methoxy)-2-phosphonoacetic acid] | 100 to 1000 | 100 to 1000 |
| O=C(O)C(OC[C@H]1O[C@@H](n2cnc3c(N4CCC(O)CC4)ncnc32)[C@H](O)[C@@H]1O)P(=O)(O)O (stereo partly drawn) [Example 66, 2-(((2R,3S,4R,5R)-3,4-dihydroxy-5-(6-(4-hydroxypiperidin-1-yl)-9H-purin-9-yl)tetrahydrofuran-2-yl)methoxy)-2-phosphonoacetic acid] | > 1000 | 100 to 1000 |
| CNc1ncnc2c1ncn2[C@@H]1O[C@H](COC(C(=O)O)P(=O)(O)O)[C@@H](O)[C@H]1O (stereo partly drawn) [Example 67, 2-(((2R,3S,4R,5R)-3,4-dihydroxy-5-(6-(methylamino)-9H-purin-9-yl)tetrahydrofuran-2-yl)methoxy)-2-phosphonoacetic acid] | > 1000 | 100 to 1000 |
| O=C(O)C(OC[C@H]1O[C@@H](n2cnc3c(N[C@@H]4CCOC4)nc(Cl)nc32)[C@H](O)[C@@H]1O)C(=O)O [Example 68, 2-(((2R,3S,4R,5R)-5-(2-chloro-6-(((R)-tetrahydrofuran-3-yl)amino)-9H-purin-9-yl)-3,4-dihydroxytetrahydrofuran-2-yl)methoxy)malonic acid] | 100 to 1000 | < 100 |
| O=C(O)C(OC[C@H]1O[C@@H](n2cnc3c(N[C@@H]4CCOC4)nc(Cl)nc32)[C@H](O)[C@@H]1O)C(=O)O [Example 69, (R)-2-(((2R,3S,4R,5R)-5-(2-chloro-6-(((R)-tetrahydrofuran-3-yl)amino)-9H-purin-9-yl)-3,4-dihydroxytetrahydrofuran-2-yl)methoxy)malonic Acid] | > 1000 | 100 to 1000 |
| CCOC(=O)[C@H](OC[C@H]1C[C@@H](n2cnc3cccc(C#N)c3c2=O)[C@H](O)[C@@H]1O)P(=O)(O)O [Example 73, ((R)-1-(((1R,2R,3S,4R)-4-(5-cyano-4-oxoquinazolin-3(4H)-yl)-2,3-dihydroxycyclopentyl)methoxy)-2-ethoxy-2-oxoethyl)phosphonic Acid] | 100 to 1000 | < 100 |
| O=C(O)C(OC[C@H]1O[C@@H](n2cnc3c(N[C@H]4CCOC4)nc(Cl)nc32)[C@H](O)[C@@H]1O)C(=O)O [Example 83, 2-(((2R,3S,4R,5R)-5-(2-chloro-6-(((S)-tetrahydrofuran-3-yl)amino)-9H-purin-9-yl)-3,4-dihydroxytetrahydrofuran-2-yl)methoxy)malonic acid] | > 1000 | 100 to 1000 |
| Nc1nc(Cl)nc2c1ncn2[C@@H]1O[C@H](COC(Cc2c(F)cccc2F)(C(=O)O)C(=O)O)[C@@H](O)[C@H]1O [Example 84, 2-(((2R,3S,4R,5R)-5-(6-amino-2-chloro-9H-purin-9-yl)-3,4-dihydroxytetrahydrofuran-2-yl)methoxy)-2-(2,6-difluorobenzyl)malonic acid] | < 100 | < 100 |
| N#Cc1ccccc1CC(OC[C@H]1O[C@@H](n2cnc3c(N)nc(Cl)nc32)[C@H](O)[C@@H]1O)(C(=O)O)C(=O)O [Example 85] | < 100 | < 100 |

— US10654884B2 (Vitae Pharmaceuticals, Inc., priority 2014, dated 2020)
